From EP2664616A1, “Hydantoin and thiohydantoin derivatives as antiviral drugs” (priority 2012, dated 2013)
Where two headings read alike, the source gives them in different places.

System: HCV replicon Luc Neo ET
Test: HCV replication inhibition assay (replicon assay, luciferase reporter)
Assay type: cell-based
Settings: Huh-7 cell lines containing HCV replicon Luc Neo ET, 72 hours with compound, 1 % DMSO, firefly luciferase reporter, concentration that produces 50 % of replication inhibition; for EC50: read-out: EC50 Replicon LucneoET
Method: The compounds according to the present invention were tested for their ability to inhibit HCV replication as follows:
Huh-7 cell lines containing HCV replicon Luc Neo ET (Reblikon) were maintained in DMEM supplemented with 10% SVF, 2 mM glutamine, and 1 X NEAA, 100 U / ml penicillin, and 100 µg / ml streptomycine. Cells were maintained in medium supplemented with 0.5 mg/ml G418, at 37°C and 5% CO2 in a humidified atmosphere. Cells were dissociated at sub confluence with trypsin EDTA 1X.
Replicon Luc Neo ET is bicistronic expression constructs (Lohmann et al, 1999, Science 285, 110-113). In brief, the structural genes of the HCV genome were replaced by heterologous sequences; the gene encoding the neomycin phosphotransferase (NPT) and the internal ribosome entry site (IRES) of the encephalomyocarditis virus (EMCV). The bicistronic construct is therefore composed of the following elements: HCV-IRES nucleotides 1-389 for Luc Neo ET, the NPT gene, the EMCV-IRES directing translation of downstream HCV sequences from NS2 or NS3 up to the authentic 3' end of the genome. HCV Polyprotein of Luc Neo ET replicon harbours the cell culture adaptive mutations E1202G, T1280I, K1846T. G418-resistance is only possible with cells containing high amounts of replicon.
Cells were dissociated the day before addition of compounds and seeded in 96 well-plates at a final concentration of 27 777.77 cells.ml^-1.cm^-2 in 90µl final volume of culture medium per well and were maintained at 37°C and 5% CO2 in a humidified atmosphere for 24 hours. 10 µl of compounds to be tested were added 24 hours after seeding. Final concentration of DMSO was 1 %. Cells were incubated in the presence of compounds for 72 hours after which expression of firefly luciferase reporter gene was quantified. Briefly, culture medium was removed and cells were lysed by addition of 100 µl of lysis buffer containing 125 mM Tris Phosphate ph 7.8, 10 mM EDTA, 5 mM DTT, 50 % glycerol and 5 % Triton. Plates were vortexed 10 min at 1300 rpm. 100µl of luciferin solution 1X were added to each well. Luciferin solution contained 40 mM Tris Phosphate ph 7.8, 0.2 mM EDTA, 67 mM DTT, 2.14 mM MgCl2, 5.4 mM MgSO4, 4.7 x 10^-4 M luciferin, 5.3 x 10^-4 M ATP and 2.7 x 10^-4 M Acetyl co enzyme A. Luminescence was immediately measured with Berthold Microlumat Plus LB 96V luminometer with an integration of 1 sec. Inhibition was calculated using the formula: % inhibition = 1-[(RLUsample-RLUbackground)/(RLUsignal-RLUbackground)].
The Table 1 below illustrates data on the biological activity of compounds of the present invention. Results are expressed as EC50 which is the concentration that produces 50 % of replication inhibition. Table 1. HCV replication inhibition assay

| Compound | EC50 (Hepatitis C virus) [µM] | EC50 [µM] | other results |
| --- | --- | --- | --- |
| COc1ccc(CCN2C(=S)N(c3ccc(F)cc3)C(=O)C2CC(=O)Nc2ccc(N3CCCC3=O)cc2)cc1 (stereo not drawn) [Example 87, 2-[1-(4-fluorophenyl)-3-[2-(4-methoxyphenyl)ethyl]-5-oxo-2-sulfanylideneimidazolidin-4-yl]-N-[4-(2-oxopyrrolidin-1-yl)phenyl]acetamide] | < 5 |  |  |
| COc1ccc(CCN2C(=S)N(c3ccc(F)cc3)C(=O)C2CC(=O)Nc2ncc(OC)s2)cc1 (stereo not drawn) [Example 88, 2-[1-(4-Fluorophenyl)-3-[2-(4-methoxyphenyl)ethyl]-5-oxo-2-sulfanylideneimidazolidin-4-yl]-N-(5-methoxy-1,3-thiazol-2-yl)acetamide] | < 0.5 |  |  |
| COc1ccc(/C=C\N2C(=S)N(c3ccc(F)cc3)C(=O)C2CC(=O)Nc2ccc(OC)cn2)cc1 (stereo not drawn) [Example 89, 2-[1-(4-Fluorophenyl)-3-[(Z)-2-(4-methoxyphenyl)ethenyl]-5-oxo-2-sulfanylideneimidazolidin-4-yl]-N-(5-methoxypyridin-2-yl)acetamide] |  |  | EC50 Replicon LucneoET: Non Active |
| COc1ccc(CCN2C(=S)N(c3ccccc3)C(=O)/C2=C\C(=O)Nc2ccc(N(C)C)cc2)cc1 [Example 90, N-[4-(dimethylamino)phenyl]-2-[(4E)-3-[2-(4-methoxyphenyl)ethyl]-5-oxo-1-phenyl-2-sulfanylideneimidazolidin-4-ylidene]acetamide] | < 0.5 |  |  |
| COc1ccc(CCN2C(=S)N(c3ccc(F)cc3)C(=O)C2CC(=O)Nc2ccc(O)cc2)cc1 (stereo not drawn) [Example 91, 2-[1-(4-fluorophenyl)-3-[2-(4-methoxyphenyl)ethyl]-5-oxo-2-sulfanylideneimidazolidin-4-yl]-N-(4-hydroxyphenyl)acetamide] | < 0.5 |  |  |
| COc1ccc(CCCN2C(=S)N(c3ccc(F)cc3)C(=O)C2CC(=O)Nc2ccc(OC)cn2)cc1 (stereo not drawn) [Example 92, 2-[1-(4-fluorophenyl)-3-[3-(4-methoxyphenyl)propyl]-5-oxo-2-sulfanylideneimidazolidin-4-yl]-N-(5-methoxypyridin-2-yl)acetamide] | < 0.5 |  |  |
| COc1ccc(CCCCN2C(=S)N(c3ccc(F)cc3)C(=O)C2CC(=O)Nc2ccc(OC)cn2)cc1 (stereo not drawn) [Example 93, 2-[1-(4-fluorophenyl)-3-[4-(4-methoxyphenyl)butyl]-5-oxo-2-sulfanylideneimidazolidin-4-yl]-N-(5-methoxypyridin-2-yl)acetamide] | < 0.5 |  |  |
| COc1ccc(/C=C/N2C(=S)N(c3ccc(F)cc3)C(=O)C2CC(=O)Nc2ccc(OC)cn2)cc1 (stereo not drawn) [Example 95] |  | < 0.5 |  |
| COc1ccc(CCN2C(=S)N(c3ccc(F)cc3)C(=O)C2CC(=O)Nc2c(F)cc(OC)cc2F)cc1 (stereo not drawn) [Example 97] |  | < 0.5 |  |
| COc1ccc(NC(=O)CC2C(=O)N(c3ccc(F)cc3)C(=S)N2CCc2ccc(OCCNC(=O)OC(C)(C)C)cc2)nc1 (stereo not drawn) [Example 98] |  | < 0.5 |  |
| N-[4-(dimethylamino)phenyl]-2-[1-(4-fluorophenyl)-4-hydroxy-3-[2-(4-methoxyphenyl)ethyl]-5-oxo-2-sulfanylideneimidazolidin-4-yl]acetamide [Example 77] |  | < 0.5 |  |
| N-[4-(dimethylamino)phenyl]-2-{4-hydroxy-3-[2-(4-methoxyphenyl)ethyl]-5-oxo-1-phenyl-2-sulfanylideneimidazolidin-4-yl}acetamide [Example 70] |  | < 0.5 |  |
